Laboratory results as given in patent US20170334899A1, “AMINO-SUBSTITUTED ISOTHIAZOLES” (Bayer Pharma Aktiengesellschaft, priority 2014, published 2017).
Counter-ions that a name gives are not always drawn.

Target: T1, human kinase Mps-1 (Homo sapiens, UniProt P33981)
T1 construct: N-terminally GST-tagged human full length recombinant Mps-1 kinase; GST (N); purchased Invitrogen, Karslruhe, Germany PV4071
T1 sequence (P33981 1-857): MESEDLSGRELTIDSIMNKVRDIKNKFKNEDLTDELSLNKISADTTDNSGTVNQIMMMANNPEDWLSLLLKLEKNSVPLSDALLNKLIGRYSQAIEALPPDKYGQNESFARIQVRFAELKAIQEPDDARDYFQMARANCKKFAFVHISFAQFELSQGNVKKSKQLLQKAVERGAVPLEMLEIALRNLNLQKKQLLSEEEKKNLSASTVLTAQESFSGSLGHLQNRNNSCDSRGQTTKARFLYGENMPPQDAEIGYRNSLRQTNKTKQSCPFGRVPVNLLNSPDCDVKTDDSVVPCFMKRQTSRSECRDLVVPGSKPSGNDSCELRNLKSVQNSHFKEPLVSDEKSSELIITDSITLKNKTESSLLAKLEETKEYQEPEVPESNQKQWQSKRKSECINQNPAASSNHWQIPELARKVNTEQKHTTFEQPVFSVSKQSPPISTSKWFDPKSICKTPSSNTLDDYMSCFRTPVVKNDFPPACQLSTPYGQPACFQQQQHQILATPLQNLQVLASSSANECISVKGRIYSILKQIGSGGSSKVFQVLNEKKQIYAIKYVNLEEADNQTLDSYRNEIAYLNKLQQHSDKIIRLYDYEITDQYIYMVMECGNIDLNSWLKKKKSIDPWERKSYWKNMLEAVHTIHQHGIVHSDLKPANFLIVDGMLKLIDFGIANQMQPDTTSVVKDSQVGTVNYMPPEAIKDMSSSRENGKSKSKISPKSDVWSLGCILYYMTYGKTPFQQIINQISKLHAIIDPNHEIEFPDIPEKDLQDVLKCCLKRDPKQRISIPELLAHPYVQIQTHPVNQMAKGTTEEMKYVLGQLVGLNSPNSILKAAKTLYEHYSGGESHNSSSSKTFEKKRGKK
Assay: Mps-1 kinase assay (TR-FRET)
Format: biochemical
Conditions: Mps-1 TR-FRET kinase assay; avg; read-out: Mps1 avg (IC50 [mol/l])
Procedure, shortened: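 Inhibition normalised between uninhibited reaction (0%) and enzyme-free wells (100%), using the blank-corrected TR-FRET 665/620 nm ratio after EDTA stop. Reaction: ~0.5 nM GST-Mps-1 full length, 10 μM ATP, 1 μM biotin-peptide, 60 min at 22 °C, after 15 min compound pre-binding, pH 7.7.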

First: Cc1nsc(Nc2cncc(C(F)(F)F)n2)c1C(=O)Nc1ccc(C(=O)NCCN2CCCC(F)C2)cc1 (centres unmarked) [Example 155, N-(4-{[2-(3-fluoropiperidin-1-yl)ethyl]carbamoyl}phenyl)-3-methyl-5-{[6-(trifluoromethyl)pyrazin-2-yl]amino}-1,2-thiazole-4-carboxamide]
Second: Cc1nsc(Nc2cncc(C(F)(F)F)n2)c1C(=O)Nc1ccc(C(=O)NC2CCN(CC(F)(F)F)CC2)cc1 [Example 167, 3-methyl-N-(4-{[1-(2,2,2-trifluoroethyl)piperidin-4-yl]carbamoyl}phenyl)-5-{[6-(trifluoromethyl)pyrazin-2-yl]amino}-1,2-thiazole-4-carboxamide]
The IC50 of the first is lower: 18 µM for the first, > 20 µM for the second. The first is the more potent here.

`Cc1nsc(Nc2cnc3ccccc3n2)c1C(=O)Nc1ccc(C(=O)NCCN2CCCC(F)(F)C2)cc1` [Example 156, N-(4-{[2-(3,3-difluoropiperidin-1-yl)ethyl]carbamoyl}phenyl)-3-methyl-5-(quinoxalin-2-ylamino)-1,2-thiazole-4-carboxamide] and `Cc1nsc(Nc2cnc3ccccc3n2)c1C(=O)Nc1ccc(C(=O)N2CCCN(CC(F)(F)F)CC2)cc1` [Example 159] cannot be ordered by IC50: > 20 µM for the first, > 20 µM for the second.

`Cc1nsc(Nc2cnc3ccccc3n2)c1C(=O)Nc1ccc(C(=O)N2CCN(CC(F)F)CC2)cc1` [Example 157, N-(4-{[4-(2,2-difluoroethyl)piperazin-1-yl]carbonyl}phenyl)-3-methyl-5-(quinoxalin-2-ylamino)-1,2-thiazole-4-carboxamide] and `Cc1nsc(Nc2cnc3ccccc3n2)c1C(=O)Nc1ccc(C(=O)NC2CN(C(=O)OC(C)(C)C)CC(F)(F)C2)cc1` (centres unmarked) [Example 158, tert-butyl 3,3-difluoro-5-{[4-({[3-methyl-5-(quinoxalin-2-ylamino)-1,2-thiazol-4-yl]carbonyl}amino)benzoyl]amino} piperidine-1-carboxylate] cannot be ordered by IC50: > 20 µM for the first, > 20 µM for the second.

`Cc1nsc(Nc2cnc(C(F)(F)F)cn2)c1C(=O)Nc1ccc(OC2CCN(C(C)C)CC2)nc1` [Example 160, N-{6-[(1-isopropylpiperidin-4-yl)oxy]pyridin-3-yl}-3-methyl-5-{[5-(trifluoromethyl)pyrazin-2-yl]amino}-1,2-thiazole-4-carboxamide] and `Cc1nsc(Nc2cnc(C(F)(F)F)cn2)c1C(=O)Nc1ccc(OC2CCN(CCC(F)(F)F)CC2)nc1` [Example 426, 3-Methyl-5-{[5-(trifluoromethyl)pyrazin-2-yl]amino}-N-(6-{[1-(3,3,3-trifluoro-propyl)piperidin-4-yl]oxy}pyridin-3-yl)-1,2-thiazole-4-carboxamide, Salt with Hydrochloric Acid] cannot be ordered by IC50: > 20 µM for the first, ≥ 20 µM for the second.

`Cc1nsc(Nc2cnc(C(F)(F)F)cn2)c1C(=O)Nc1ccc(OC2CCN(CCF)CC2)c(F)c1` [Example 162, N-(3-fluoro-4-{[1-(2-fluoroethyl)piperidin-4-yl]oxy}phenyl)-3-methyl-5-{[5-(trifluoromethyl)pyrazin-2-yl]amino}-1,2-thiazole-4-carboxamide] and `Cc1nsc(Nc2cnc(C(F)(F)F)cn2)c1C(=O)Nc1ccc(OC2CCN(CC(F)F)CC2)c(F)c1` [Example 164, N-(4-{[1-(2,2-difluoroethyl)piperidin-4-yl]oxy}-3-fluorophenyl)-3-methyl-5-{[5-(trifluoromethyl)pyrazin-2-yl]amino}-1,2-thiazole-4-carboxamide] cannot be ordered by IC50: > 20 µM for the first, > 20 µM for the second.

`Cc1nsc(Nc2cnc(C(F)(F)F)cn2)c1C(=O)Nc1ccc(OC2CCN(CC(F)(F)F)CC2)c(F)c1` [Example 163, N-(3-fluoro-4-{[1-(2,2,2-trifluoroethyl)piperidin-4-yl]oxy}phenyl)-3-methyl-5-{[5-(trifluoromethyl)pyrazin-2-yl]amino}-1,2-thiazole-4-carboxamide] and `Cc1nsc(Nc2cnc(C(F)(F)F)cn2)c1C(=O)Nc1ccc(C(=O)NC2CCN(CC(F)(F)F)CC2)cc1` [Example 165, 3-methyl-N-(4-{[1-(2,2,2-trifluoroethyl)piperidin-4-yl]carbamoyl}phenyl)-5-{[5-(trifluoromethyl)pyrazin-2-yl]amino}-1,2-thiazole-4-carboxamide] cannot be ordered by IC50: > 20 µM for the first, > 20 µM for the second.

`Cc1nsc(Nc2cncc(C(F)(F)F)n2)c1C(=O)Nc1ccc(OCC2CCCN(C(=O)OC(C)(C)C)C2)nc1` (centres unmarked) [Example 166, tert-butyl 3-{[(5-{[(3-methyl-5-{[6-(trifluoromethyl)pyrazin-2-yl]amino}-1,2-thiazol-4-yl)carbonyl]amino}pyridin-2-yl)oxy]methyl}piperidine-1-carboxylate] and `Cc1nsc(Nc2cncc(C(F)(F)F)n2)c1C(=O)Nc1ccc(F)c(OC2CCN(C(=O)OC(C)(C)C)CC2)c1` [Example 168, tert-butyl 4-(2-fluoro-5-{[(3-methyl-5-{[6-(trifluoromethyl)pyrazin-2-yl]amino}-1,2-thiazol-4-yl)carbonyl]amino}phenoxy)piperidine-1-carboxylate] cannot be ordered by IC50: > 20 µM for the first, > 20 µM for the second.

`Cc1nsc(Nc2cnc3ccccc3n2)c1C(=O)Nc1ccc(N2CCOCC2)nc1` [Example 169, 3-methyl-N-[6-(morpholin-4-yl)pyridin-3-yl]-5-(quinoxalin-2-ylamino)-1,2-thiazole-4-carboxamide] and `Cc1nsc(Nc2cnc3ccccc3n2)c1C(=O)Nc1ccc(NC2CC2)nc1` [Example 172, N-[6-(cyclopropylamino)pyridin-3-yl]-3-methyl-5-(quinoxalin-2-ylamino)-1,2-thiazole-4-carboxamide] cannot be ordered by IC50: > 20 µM for the first, > 20 µM for the second.

`Cc1nsc(Nc2ccc(C#N)cn2)c1C(=O)Nc1ccc(N[C@@H](C)C(=O)OC(C)(C)C)nc1` [Example 170, tert-butyl N-{5-[({5-[(5-cyanopyridin-2-yl)amino]-3-methyl-1,2-thiazol-4-yl}carbonyl)amino]pyridin-2-yl}alaninate] and `Cc1nsc(Nc2ccc(C#N)cn2)c1C(=O)Nc1ccc(NC2CCCN(C(=O)OC(C)(C)C)C2)nc1` (centres unmarked) [Example 171, tert-butyt 3-({5-[({5-[(5-cyanopyridin-2-yl)amino]-3-methyl-1,2-thiazol-4-yl}carbonyl)amino]pyridin-2-yl}amino)piperidine-1-carboxylate] cannot be ordered by IC50: > 20 µM for the first, > 20 µM for the second.

`COc1ccc(NC(=O)c2c(C)nsc2Nc2ccc(C#N)cn2)c(N2CCOCC2)n1` [Example 173, 5-[(5-cyanopyridin-2-yl)amino]-N-[6-methoxy-2-(morpholin-4-yl)pyridin-3-yl]-3-methyl-1,2-thiazole-4-carboxamide] and `Cc1nsc(Nc2cnc(C(F)(F)F)cn2)c1C(=O)Nc1ccc(F)c(OCC2CCCN(CC(F)F)C2)c1` (centres unmarked) [Example 335, N-(3-{[1-(2,2-difluoroethyl)piperidin-3-yl]methoxy}-4-fluorophenyl)-3-methyl-5-{[5-(trifluoromethyl)pyrazin-2-yl]amino}-1,2-thiazole-4-carboxamide] cannot be ordered by IC50: > 20 µM for the first, ≥ 20 µM for the second.
